PMC9944328 (Nature Communications, 2023)

Columns and labels:
SSTR2 mutants [1] = assay: SSTR2 internalization by ELISA, HEK293, 30 min 37 °C (mutants); type: cell-based, human; details: I284ECL3A, K291A, N276A, F294A, Bystander BRET or confocal
Method: HEK293 cells were seeded into 96-well microplates at a density of 4 × 10^4 cells/well and cultured for 24 h at 37 °C with 5% CO2 and were transfected using the same procedure as the cAMP accumulation assay. The plates were washed with washing buffer (PBS) the day after transfection, and were fixed with 4% formalin at room temperature for 30 min. Cells were washed with washing buffer and blocked with PBS supplemented with 5% BSA for 1 h at room temperature. After that, cells were incubated with anti-Flag antibody (1:1000 diluted with PBS containing 5% BSA, Proteintech: 66008-4-Ig) for 1 h at room temperature. After 1 h incubation, cells were washed with washing buffer and incubating with HRP-conjugated secondary antibody for 2 h at room temperature. After incubating and washing, 50 μl of chromogenic solution was added to each well, and reacted at room temperature for 10 min, and then 0.5 M HCl were added to stop the reaction.
All data presented are means at least three independent experiments.

SSTR2 mutants [2] = biological target: SSTR2 mutants (Homo sapiens, UniProt P30874, F265A); assay: Bystander BRET endosomal trafficking (β-arrestin 1-Nluc, FYVE-mVenus), HEK293 (SSTR2 mutants); details: HEK293;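 note: Read-out is the BRET ratio between Nluc-fused β-arrestin 1 and the early endosome marker FYVE-mVenus, measured after ligand addition with coelenterazine h as substrate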;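 for Bottom: percent of maximal wild-type response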;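 for Span: percent of maximal wild-type response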;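 for Top: percent of maximal wild-type response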
Sequence of SSTR2 mutants (Homo sapiens, UniProt P30874, F265A) (P30874 whole entry F265A, the tested form may be a part): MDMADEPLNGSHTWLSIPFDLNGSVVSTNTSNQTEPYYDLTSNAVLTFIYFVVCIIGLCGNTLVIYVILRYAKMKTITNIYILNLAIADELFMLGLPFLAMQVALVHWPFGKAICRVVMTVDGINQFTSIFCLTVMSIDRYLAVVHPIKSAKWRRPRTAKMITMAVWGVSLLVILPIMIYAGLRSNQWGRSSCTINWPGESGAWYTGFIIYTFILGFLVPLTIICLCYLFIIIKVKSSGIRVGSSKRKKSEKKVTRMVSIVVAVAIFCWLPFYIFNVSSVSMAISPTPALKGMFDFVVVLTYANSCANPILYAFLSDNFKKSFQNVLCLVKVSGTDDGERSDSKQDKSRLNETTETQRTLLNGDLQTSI
Method: (§1) Wild-type or mutant SSTR2, β-arrestin 1-Nluc and FYVE-mVenus were co-transfected in HEK293 cells at a ratio of 1:0.5:4 on six-well plates. The next day, the transfected cells were plated on white 96-well and incubated overnight, and then cells were incubated with 90 µL HBSS containing 20 mM HEPES and coelenterazine h (5 µM) at room temperature for 40 min. After incubation, ligand was added and the signal was measured using the Synergy H1 microplate reader (BioTek) to determine a BRET ratio.

SSTR2 mutants [3] = biological target: SSTR2 mutants (Homo sapiens, UniProt P30874, I130A); assay: as above; details: HEK293
Sequence of SSTR2 mutants (Homo sapiens, UniProt P30874, I130A) (P30874 whole entry I130A): as the sequence (P30874 whole entry F265A, the tested form may be a part) above, with I130A, A265F counted along it
Method: as §1

SSTR2 mutants [4] = biological target: SSTR2 mutants (Homo sapiens, UniProt P30874, I284A); assay: as above; details: for Bottom: Best-fit values
Sequence of SSTR2 mutants (Homo sapiens, UniProt P30874, I284A) (P30874 whole entry I284A): as the sequence (P30874 whole entry F265A, the tested form may be a part) above, with A265F, I284A counted along it
Method: as §1

SSTR2 mutants [5] = biological target: SSTR2 mutants (Homo sapiens, UniProt P30874, K291A); assay: as above; details: for Bottom: best-fit
Sequence of SSTR2 mutants (Homo sapiens, UniProt P30874, K291A) (P30874 whole entry K291A): as the sequence (P30874 whole entry F265A, the tested form may be a part) above, with A265F, K291A counted along it
Method: as §1

SSTR2 mutants [6] = biological target: SSTR2 mutants (Homo sapiens, UniProt P30874, P220A); assay: as above; details: for Bottom: Best-fit values
Sequence of SSTR2 mutants (Homo sapiens, UniProt P30874, P220A) (P30874 whole entry P220A): as the sequence (P30874 whole entry F265A, the tested form may be a part) above, with P220A, A265F counted along it
Method: as §1

SSTR2 mutants [7] = biological target: SSTR2 mutants (Homo sapiens, UniProt P30874, W269A); assay: as above; details: for Bottom: Best-fit values
Sequence of SSTR2 mutants (Homo sapiens, UniProt P30874, W269A) (P30874 whole entry W269A): as the sequence (P30874 whole entry F265A, the tested form may be a part) above, with A265F, W269A counted along it
Method: as §1

SSTR2 mutants [8] = biological target: SSTR2 mutants (Homo sapiens, UniProt P30874, Y312A); assay: as above; details: Best-fit values
Sequence of SSTR2 mutants (Homo sapiens, UniProt P30874, Y312A) (P30874 whole entry Y312A): as the sequence (P30874 whole entry F265A, the tested form may be a part) above, with A265F, Y312A counted along it
Method: as §1

SSTR2 mutants [9] = assay: as above
Method: as §1

C[C@@H](O)[C@@H]1NC(=O)[C@H](CCCCN)NC(=O)[C@@H](Cc2c[nH]c3ccccc23)NC(=O)[C@H](Cc2ccccc2)NC(=O)[C@@H](NC(=O)[C@H](N)Cc2ccccc2)CSSC[C@@H](C(=O)N[C@H](CO)[C@@H](C)O)NC1=O [octreotide]
Internalization of mutants (SSTR2 mutants [1]): diminished internalization | Emax (SSTR2 mutants [2]): 56.1 ± 4.14% | Emax (SSTR2 mutants [3]): 68.2 ± 4.05% | Bottom (SSTR2 mutants [4]; I284A-1): 1.002 | Bottom (SSTR2 mutants [4]; I284A-2): 9.91 | Emax (SSTR2 mutants [4]; HEK293): 94.8 ± 4.62% | Emax (SSTR2 mutants [5]; HEK293): 68 ± 8.22% | Bottom (SSTR2 mutants [5]; K291A-1, run 1): -10.2 | Bottom (SSTR2 mutants [5]; K291A-2, run 2): 2.053 | Bottom (SSTR2 mutants [6]; P220A-1): -11.09 | Bottom (SSTR2 mutants [6]; P220A-2): 6.493 | Emax (SSTR2 mutants [6]; HEK293): 20.3 ± 8.01% | Bottom (SSTR2 mutants [7]; W269A-1): -0.7468 | Bottom (SSTR2 mutants [7]; W269A-2): -3.268 | Emax (SSTR2 mutants [7]; HEK293): 14.5 ± 3.19% | Bottom (SSTR2 mutants [8]; Y312A-1): 0.5637 | Bottom (SSTR2 mutants [8]; Y312A-2): -0.6682 | LogEC50 (SSTR2 mutants [9]; Best-fit values, I284A-1): -6.559 | Top (SSTR2 mutants [9]; Best-fit values, I284A-1): 94.85 | LogEC50 (SSTR2 mutants [9]; Best-fit values, I284A-2): -7.171 | Top (SSTR2 mutants [9]; Best-fit values, I284A-2): 92.19 | LogEC50 (SSTR2 mutants [9]; Best-fit values, P220A-1): -6.023 | Span (SSTR2 mutants [9]; Best-fit values, P220A-1): 31.36 | Top (SSTR2 mutants [9]; Best-fit values, P220A-1): 20.27 | LogEC50 (SSTR2 mutants [9]; Best-fit values, P220A-2): -7.589 | Span (SSTR2 mutants [9]; Best-fit values, P220A-2): 32.52 | Top (SSTR2 mutants [9]; Best-fit values, P220A-2): 39.01 | LogEC50 (SSTR2 mutants [9]; Best-fit values, R140A-1): -8.238 | Span (SSTR2 mutants [9]; Best-fit values, R140A-1): 48.38 | Top (SSTR2 mutants [9]; Best-fit values, R140A-1): 48.39 | LogEC50 (SSTR2 mutants [9]; Best-fit values, R140A-2): -8.282 | Span (SSTR2 mutants [9]; Best-fit values, R140A-2): 47.34 | Top (SSTR2 mutants [9]; Best-fit values, R140A-2): 46.25 | EC50 (SSTR2 mutants [9]; Best-fit values, W269A-1): 0.642 nM | LogEC50 (SSTR2 mutants [9]; Best-fit values, W269A-1): -9.192 | Span (SSTR2 mutants [9]; Best-fit values, W269A-1): 18.76 | Top (SSTR2 mutants [9]; Best-fit values, W269A-1): 18.02 | EC50 (SSTR2 mutants [9]; Best-fit values, W269A-2): 0.132 nM | LogEC50 (SSTR2 mutants [9]; Best-fit values, W269A-2): -9.88 | Span (SSTR2 mutants [9]; Best-fit values, W269A-2): 17.57 | Top (SSTR2 mutants [9]; Best-fit values, W269A-2): 14.3 | EC50 (SSTR2 mutants [9]; Best-fit values, Y312A-1): 10.2 nM | LogEC50 (SSTR2 mutants [9]; Best-fit values, Y312A-1): -7.991 | Span (SSTR2 mutants [9]; Best-fit values, Y312A-1): 45.08 | Top (SSTR2 mutants [9]; Best-fit values, Y312A-1): 45.64 | EC50 (SSTR2 mutants [9]; Best-fit values, Y312A-2): 10.3 nM | LogEC50 (SSTR2 mutants [9]; Best-fit values, Y312A-2): -7.988 | Span (SSTR2 mutants [9]; Best-fit values, Y312A-2): 40.73 | Top (SSTR2 mutants [9]; Best-fit values, Y312A-2): 40.06 | Internalization of microswitch mutants (SSTR2 mutants [9]; alanine substitution of microswitch residues): reduced receptor internalization | EC50 (SSTR2 mutants [9]; best-fit, I284A-1, run 1): 276 nM | Span (SSTR2 mutants [9]; best-fit, I284A-1, run 1): 93.85 | EC50 (SSTR2 mutants [9]; best-fit, I284A-2, run 2): 67.5 nM | Span (SSTR2 mutants [9]; best-fit, I284A-2, run 2): 82.28 | EC50 (SSTR2 mutants [9]; best-fit, K291A-1, run 1): 1610 nM | LogEC50 (SSTR2 mutants [9]; best-fit, K291A-1, run 1): -5.793 | Span (SSTR2 mutants [9]; best-fit, K291A-1, run 1): 78.24 | Top (SSTR2 mutants [9]; best-fit, K291A-1, run 1): 68.05 | EC50 (SSTR2 mutants [9]; best-fit, K291A-2, run 2): 615 nM | LogEC50 (SSTR2 mutants [9]; best-fit, K291A-2, run 2): -6.211 | Span (SSTR2 mutants [9]; best-fit, K291A-2, run 2): 78.94 | Top (SSTR2 mutants [9]; best-fit, K291A-2, run 2): 80.99
